Results reported in patent US20230026259A1, “CA2 COMPOSITIONS AND METHODS FOR TUNABLE REGULATION” (Obsidian Therapeutics, Inc., priority 2019, published 2023).

Tests used:
Type in all cases: cell-based
[1] = tested on: Activated T cells from human donor; assay: Cell surface CAR expression of CA2 regulated CAR constructs (CD19-Fc staining)
Experimental: CA2 DD described herein were operably linked to CARs to generate tunable CAR constructs. Activated T cells from human donor were transduced with 10 μL of lentivirus for indicated constructs. […] Cell surface CAR expression was detected the following day by staining the cells with 10 ug/mL CD19-Fc followed by an anti-human-BV421 conjugated secondary antibody. Histograms were plotted from a live cell gate. Similar experiments were also performed at day 8 and the cells were harvested at day 9. The data are shown in Table 20 as percentage CAR positive cells. The stabilization ratio was also calculated and is included in Table 20 as SR.
Activated T cells from human donor were transduced with 10 μL of lentivirus for indicated constructs. […] Cell surface CAR expression was detected the following day by staining the cells with 10 ug/mL CD19-Fc followed by an anti-human-BV421 conjugated secondary antibody. The percent of ligand induced CAR+ cells are plotted from a live cell gate relative to vehicle treated negative control cells.

NIH3T3 cells [2] = assay: Destabilization mutant screening of human CA2 linked to GFP, ligand response by FACS (Valdecoxib, Celecoxib, Acetazolamide); details: for stabilization with varying doses of Valdecoxib or Celecoxib: NIH3T3 cells, FACS
Experimental: To identify destabilizing mutations of human CA2 that are stabilized upon ligand binding to CA2, two rounds of mutant screening were performed, using a lentivirus CA2 mutant library provided by Genscript (China). These methods were used to generate a library of mutant polypeptides using mutagenesis primers and error prone PCR. Lentiviral vectors expressing the template, wild-type human CA2 operably linked to GFP(OT-001986) was also provided by Genscript along with the CA2 mutant library. The library was packaged into lentivirus, transduced into NIH3T3 cells at a multiplicity of infection (MOI) of approximately 0.3 and select stable cell pools were derived by selecting with selection marker puromycin.
To identify cell pools containing destabilizing mutants of CA2 that are stabilizing when CA2 is bound to its corresponding ligand, cells were sorted using FACS. In the initial round, the bottom 15% of population that was GFP negative in the absence of ligand was selected. Cells were expanded and then treated with 10 μM Celecoxib for 24 hours and harvested for cell sorting. The top 11% GFP positive cells which were also responsive to ligand treatment compared to untreated were collected. Celecoxib was removed from the cultures and replaced with DMSO. […] Genomic DNA was isolated and amplified CA2 mutants were reintroduced to the lentiviral vectors where CA2 was operably linked to GFP. The constructs were transduced into NIH3T3 cells with lentivirus vectors for each clone. The cells were treated with 10 μM Valdecoxib or 10 μM Celecoxib for 24 hours and analyzed by FACS. […] In Table 25, the Construct ID (OT-XXXXXX) refers to the construct which includes the referenced CA2 mutant and the Library ID (LibCXXXXXX) refers to the CA2 mutant itself.
The response of NIH3T3 cells to varying doses of Valdecoxib or Celecoxib for 24 hours was measured and analyzed by FACS.
Clones treated with different ligands were compared to examine the behavior of each mutant with the ligands.

NIH3T3 cells [3] = assay: Immunoblotting of cell lysates for GFP after ligand treatment; details: 24 hours; for GFP protein expression by immunoblot, Celecoxib or Valdecoxib: NIH3T3 cells, 1, 3, 10 or 30 μM Celecoxib or Valdecoxib
Experimental: The protein expression in the presence of ligand was measured by immunoblotting the cell lysates for GFP.
The protein expression in the presence of ligand was measured by immunoblotting cell lysates for GFP.

NIH3T3 cells [4] = assay: Destabilization mutant screening of human CA2 linked to GFP, ligand response by FACS (Valdecoxib, Celecoxib, Acetazolamide)
[5] = NIH3T3, 10 μM Celecoxib vs DMSO
[6] = NIH3T3, 10 μM Valdecoxib vs DMSO
[7] = NIH3T3, Acetazolamide 0.03 μM, 24 hours
[8] = NIH3T3, Acetazolamide 0.1 μM vs DMSO
[9] = NIH3T3, Acetazolamide 0.1 μM, 24 hours
[10] = NIH3T3, Acetazolamide 0.3 μM vs DMSO
[11] = NIH3T3, Acetazolamide 0.3 μM, 24 hours
[12] = NIH3T3, Acetazolamide 1 μM vs DMSO
[13] = NIH3T3, Acetazolamide 1 μM, 24 hours
[14] = NIH3T3, Acetazolamide 3 μM vs DMSO
[15] = NIH3T3, Acetazolamide 3 μM, 24 hours
[16] = NIH3T3, Acetazolamide 10 μM vs DMSO
[17] = NIH3T3, Acetazolamide 10 μM, 24 hours
[18] = NIH3T3, Acetazolamide 30 μM vs DMSO
[19] = NIH3T3, Acetazolamide 30 μM, 24 hours
[20] = NIH3T3, Celecoxib 0 μM, 24 hours
[21] = NIH3T3, Celecoxib 0.03 μM, 24 hours
[22] = NIH3T3, Celecoxib 0.1 μM, 24 hours
[23] = NIH3T3, Celecoxib 0.3 μM, 24 hours
[24] = NIH3T3, Celecoxib 1 μM, 24 hours
[25] = NIH3T3, Celecoxib 3 μM, 24 hours
[26] = NIH3T3, Celecoxib 10 μM, 24 hours
[27] = NIH3T3, Celecoxib 30 μM, 24 hours
[28] = NIH3T3, DMSO, 24 hours (Acetazolamide experiment)
[29] = NIH3T3, Valdecoxib 0 μM, 24 hours
[30] = NIH3T3, Valdecoxib 0.03 μM, 24 hours
[31] = NIH3T3, Valdecoxib 0.1 μM, 24 hours
[32] = NIH3T3, Valdecoxib 0.3 μM, 24 hours
[33] = NIH3T3, Valdecoxib 1 μM, 24 hours
[34] = NIH3T3, Valdecoxib 3 μM, 24 hours
[35] = NIH3T3, Valdecoxib 10 μM, 24 hours
[36] = NIH3T3, Valdecoxib 30 μM, 24 hours
[37] = NIH3T3, Acetazolamide 0.03 μM vs DMSO
[38] = NIH3T3, DMSO (reference), Acetazolamide experiment

## Cc1onc(-c2ccccc2)c1-c1ccc(S(N)(=O)=O)cc1 [Valdecoxib]
[1]; T cells day 8, Valdecoxib starting at 10 μM diluting 3-fold, overnight
  regulation of CAR expression by titrations of Valdecoxib: Little to no ligand dependent regulation of CAR
[1]; T cells, 10 μM ligand overnight, day 7 and 9
  CAR regulation compared between ligands: regulation was more evident at day 7

## CA2 (aa 2-260 of WT, L197P) [LibC000186]
NIH3T3 cells [2]; NIH3T3, 10 μM Celecoxib
  Median PE: 8156
NIH3T3 cells [2]; [5]
  SR (stabilization ratio): 10
NIH3T3 cells [2]; NIH3T3, 10 μM Valdecoxib
  Median PE: 6570
NIH3T3 cells [2]; [6]
  SR (stabilization ratio): 8.05
NIH3T3 cells [2]; [7]
  Median FITC / Median PE: 872
NIH3T3 cells [2]; [8]
  Fold change: 1.18
NIH3T3 cells [2]; [9]
  Median FITC / Median PE: 867
NIH3T3 cells [2]; [10]
  Fold change: 1.23
NIH3T3 cells [2]; [11]
  Median FITC / Median PE: 903
NIH3T3 cells [2]; [12]
  Fold change: 1.28
NIH3T3 cells [2]; [13]
  Median FITC / Median PE: 936
NIH3T3 cells [2]; [14]
  Fold change: 1.28
NIH3T3 cells [2]; [15]
  Median FITC / Median PE: 943
NIH3T3 cells [2]; NIH3T3, Acetazolamide 10 μM
  MFI, comparative analysis: 1189
NIH3T3 cells [2]; [16]
  Fold change: 1.62
NIH3T3 cells [2]; [17]
  Median FITC / Median PE: 1189
NIH3T3 cells [2]; NIH3T3, Acetazolamide 30 μM
  MFI, comparative analysis: 1827
NIH3T3 cells [2]; [18]
  Fold change: 2.49
NIH3T3 cells [2]; [19]
  Median FITC / Median PE: 1827
NIH3T3 cells [2]; [20]
  Med (median fluorescence intensity): 934
  SR (stabilization ratio): 1
NIH3T3 cells [2]; [21]
  Med (median fluorescence intensity): 1177
  SR (stabilization ratio): 1.26
NIH3T3 cells [2]; [22]
  Med (median fluorescence intensity): 1290
  SR (stabilization ratio): 1.38
NIH3T3 cells [2]; [23]
  Med (median fluorescence intensity): 1470
  SR (stabilization ratio): 1.57
NIH3T3 cells [2]; [24]
  Med (median fluorescence intensity): 2065
  SR (stabilization ratio): 2.21
NIH3T3 cells [2]; [25]
  Med (median fluorescence intensity): 4171
  SR (stabilization ratio): 4.47
NIH3T3 cells [2]; [26]
  Med (median fluorescence intensity): 8202
  SR (stabilization ratio): 8.78
NIH3T3 cells [2]; [27]
  Med (median fluorescence intensity): 10200
  SR (stabilization ratio): 10.92
NIH3T3 cells [2]; NIH3T3, Celecoxib μM (concentration not given)
  MFI, comparative analysis, normalized to parental day 1: 7312.627
NIH3T3 cells [2]; NIH3T3, DMSO
  MFI, comparative analysis: 734
  Median PE: 816
NIH3T3 cells [2]; NIH3T3, DMSO (reference)
  SR (stabilization ratio): 1
NIH3T3 cells [2]; [28]
  Median FITC / Median PE: 734
NIH3T3 cells [2]; [29]
  Med (median fluorescence intensity): 934
  SR (stabilization ratio): 1
NIH3T3 cells [2]; [30]
  Med (median fluorescence intensity): 1223
  SR (stabilization ratio): 1.31
NIH3T3 cells [2]; [31]
  Med (median fluorescence intensity): 1217
  SR (stabilization ratio): 1.3
NIH3T3 cells [2]; [32]
  Med (median fluorescence intensity): 1363
  SR (stabilization ratio): 1.46
NIH3T3 cells [2]; [33]
  Med (median fluorescence intensity): 1711
  SR (stabilization ratio): 1.83
NIH3T3 cells [2]; [34]
  Med (median fluorescence intensity): 3357
  SR (stabilization ratio): 3.59
NIH3T3 cells [2]; [35]
  Med (median fluorescence intensity): 7890
  SR (stabilization ratio): 8.45
NIH3T3 cells [2]; [36]
  Med (median fluorescence intensity): 11800
  SR (stabilization ratio): 12.63
NIH3T3 cells [2]; NIH3T3, Valdecoxib μM (concentration not given)
  MFI, comparative analysis, normalized to parental day 1: 7034.458
NIH3T3 cells [2]; 24 hours
  stabilization with varying doses of Valdecoxib or Celecoxib: dose dependent stabilization
NIH3T3 cells [3]; NIH3T3 cells, 0.3, 1, 3, 10 or 30 μM Acetazolamide
  GFP protein expression by immunoblot, Acetazolamide: stabilization of GFP with increasing ligand doses
NIH3T3 cells [3]
  GFP protein expression by immunoblot, Celecoxib or Valdecoxib: stabilization of GFP with increasing ligand doses
NIH3T3 cells [4]; [37]
  Fold change: 1.19
NIH3T3 cells [4]; [38]
  Fold change: 1

## CA2 (aa 2-260 of WT, R27L, T87I, H122Y, N252D) [LibC000226]
NIH3T3 cells [2]; NIH3T3, 10 μM Celecoxib
  Median PE: 3816
NIH3T3 cells [2]; [5]
  SR (stabilization ratio): 8.65
NIH3T3 cells [2]; NIH3T3, 10 μM Valdecoxib
  Median PE: 3588
NIH3T3 cells [2]; [6]
  SR (stabilization ratio): 7.93
NIH3T3 cells [2]; [7]
  Median FITC / Median PE: 499
NIH3T3 cells [2]; [8]
  Fold change: 1.85
NIH3T3 cells [2]; [9]
  Median FITC / Median PE: 704
NIH3T3 cells [2]; [10]
  Fold change: 3.58
NIH3T3 cells [2]; [11]
  Median FITC / Median PE: 1360
NIH3T3 cells [2]; [12]
  Fold change: 9.46
NIH3T3 cells [2]; [13]
  Median FITC / Median PE: 3594
NIH3T3 cells [2]; [14]
  Fold change: 17.49
NIH3T3 cells [2]; [15]
  Median FITC / Median PE: 6645
NIH3T3 cells [2]; [16]
  Fold change: 24.46
NIH3T3 cells [2]; [17]
  Median FITC / Median PE: 9295
NIH3T3 cells [2]; [18]
  Fold change: 28.68
NIH3T3 cells [2]; [19]
  Median FITC / Median PE: 10900
NIH3T3 cells [2]; [20]
  Med (median fluorescence intensity): 531
  SR (stabilization ratio): 1
NIH3T3 cells [2]; [21]
  Med (median fluorescence intensity): 711
  SR (stabilization ratio): 1.34
NIH3T3 cells [2]; [22]
  Med (median fluorescence intensity): 661
  SR (stabilization ratio): 1.24
NIH3T3 cells [2]; [23]
  Med (median fluorescence intensity): 750
  SR (stabilization ratio): 1.41
NIH3T3 cells [2]; [24]
  Med (median fluorescence intensity): 1207
  SR (stabilization ratio): 2.27
NIH3T3 cells [2]; [25]
  Med (median fluorescence intensity): 2544
  SR (stabilization ratio): 4.79
NIH3T3 cells [2]; [26]
  Med (median fluorescence intensity): 5227
  SR (stabilization ratio): 9.84
NIH3T3 cells [2]; [27]
  Med (median fluorescence intensity): 7171
  SR (stabilization ratio): 13.5
NIH3T3 cells [2]; NIH3T3, DMSO
  Median PE: 441
NIH3T3 cells [2]; NIH3T3, DMSO (reference)
  SR (stabilization ratio): 1
NIH3T3 cells [2]; [28]
  Median FITC / Median PE: 380
NIH3T3 cells [2]; [29]
  Med (median fluorescence intensity): 531
  SR (stabilization ratio): 1
NIH3T3 cells [2]; [30]
  Med (median fluorescence intensity): 580
  SR (stabilization ratio): 1.09
NIH3T3 cells [2]; [31]
  Med (median fluorescence intensity): 623
  SR (stabilization ratio): 1.17
NIH3T3 cells [2]; [32]
  Med (median fluorescence intensity): 655
  SR (stabilization ratio): 1.23
NIH3T3 cells [2]; [33]
  Med (median fluorescence intensity): 873
  SR (stabilization ratio): 1.64
NIH3T3 cells [2]; [34]
  Med (median fluorescence intensity): 1572
  SR (stabilization ratio): 2.96
NIH3T3 cells [2]; [35]
  Med (median fluorescence intensity): 3902
  SR (stabilization ratio): 7.35
NIH3T3 cells [2]; [36]
  Med (median fluorescence intensity): 6245
  SR (stabilization ratio): 11.76
NIH3T3 cells [2]; 24 hours
  stabilization with varying doses of Valdecoxib or Celecoxib: dose dependent stabilization
NIH3T3 cells [3]
  GFP protein expression by immunoblot, Celecoxib or Valdecoxib: stabilization of GFP with increasing ligand doses
NIH3T3 cells [4]; [37]
  Fold change: 1.31
NIH3T3 cells [4]; [38]
  Fold change: 1
